# Legend:
# cytochrome c [1] = target: T1, cytochrome c (Equus caballus, UniProt P00004); experiment: Fluorescence quenching of labelled peptides by cytochrome c; format: binding, horse; set-up: from tissue; host or cells: horse heart; conditions: additions of 75 μg/ml BSA
# cytochrome c [2] = target: T1, cytochrome c; experiment: as above; format: binding, horse; set-up: from tissue; host or cells: horse heart; conditions: Example 22; additions of cytochrome c (2 μM)
# Experimental: Maximal fluorescence emission of SS-19 was monitored at 420 nm following excitation at 320 nm using Hitachi F-4500 fluorescence spectrophotometer.
# The quenching by cytochrome c was not displaced by sequential additions of bovine serum albumin (FIG. 12C, A+arrows) (500 μg/ml). […] Accordingly, aromatic-cationic peptides of the present disclosure are useful for the prevention or treatment of diseases or disorders characterized by dysregulation of cytochrome c.
# Fluorescence emission of SS-19 (10 μM) was monitored in real time (Ex/Em=320 nm/420 nm) using Hitachi F-4500 fluorescence spectrophotometer.
# Interaction of SS peptides with horse heart cytochrome c in the absence or presence of free cardiolipin or cardiolipin/POPC (1:1) liposomes (prepared as described in Example 22) was examined by fluorescence quenching of [atn]SS-02 (λex/λem=320/420 nm) and [ald]SS-02 (λex/λem=360/510 nm) upon addition of cytochrome c (using a Hitachi F-4500 fluorescence spectrophotometer). The solvents used to dissolve cardiolipin and POPC had negligible effect on cytochrome c-dependent quenching of these peptides. All experiments were done in low ionic solution (deionized water) or 20 mM Hepes pH 7.4.
# [3] = target: cytochrome c and cardiolipin (Equus caballus, UniProt P00004); experiment: Oxidation of ferrous cytochrome c by cardiolipin (A550); format: biochemical; conditions: 20 μM cytochrome c reduced by 50 μM ascorbic acid; 100 μg/ml cardiolipin
# Experimental: Cytochrome c (20 μM) was reduced by 50 μM ascorbic acid until all available functionally active cytochrome c was reduced. The reduction of cytochrome c was monitored by the appearance of a peak at 550 nm in its absorbance spectrum (Molecular Devices, Sunnyvale, Calif.). […] The rate of oxidation was calculated based on slope of the change in absorbance intensity of 550 nm over 570 nm.
# cytochrome c/CL complex = cytochrome c/CL complex (Equus caballus, UniProt P00004); experiment: Peroxidase activity of cytochrome c/cardiolipin complex (Amplex Red); format: biochemical; conditions: 10 μM peptide; 2 μM cytochrome c; cardiolipin 100 μg/ml
# From the text: The six coordination of the heme in cytochrome c prevents direct interaction of H2O2 with the catalytic metal site, and native cytochrome c in solution is a poor peroxidase. Upon interaction with CL, cytochrome c undergoes a structural change with rupture of the Fe-Met80 coordination. […] The mechanism of action of cytochrome c peroxidase is similar to that of other peroxidases, such as horse radish peroxidase (HRP). Thus it is possible to use the amplex red-HRP reaction to investigate cytochrome c peroxidase activity. In the presence of peroxidase, amplex red (AR) reacts with H2O2 to form the red-fluorescent oxidation product, resorufin (Ex/Em=571/585).
# Cytochrome c (2 μM) was mixed with CL (25 μg/ml) and 10 μM H2O2 in 20 mM HEPES, pH 7.4. Amplex red (50 μM) was then added and fluorescence emission monitored in real time using Hitachi F4500 fluorescence spectrophotometer. Addition of amplex red elicited rapid increase in fluorescence signal due to resorufin formation, providing direct evidence for peroxidase activity of cytochrome c/CL complex (FIG. 19A).
# Assessment of cytochrome c peroxidase activity was achieved using the Amplex® Red assay (Invitrogen/Life Technologies, Carlsbad, Calif.). Amplex® Red is a reagent that reacts with H2O2 in a 1:1 stoichiometry to produce highly fluorescent resorufin (λex/λem=570/585) in the presence of a peroxidase. In this assay, cytochrome c is added in place of horseradish peroxidase. 2 μM cytochrome c was incubated with cardiolipin or cardiolipin-POPC liposomes (10 μg/ml) for 1 min in 20 mM HEPES (pH 7.4) or deionized water prior to the addition of 50 μM Amplex® Red reagent and 10 μM H2O2, and the reaction was allowed to proceed for an additional 5 minutes. The continuous time course data were obtained using Hitachi F-4500 fluorescence spectrophotometer. When comparing the different SS peptide analogs (10 μM) in inhibiting peroxidase activity cytochrome c (2 μM) in the presence of cardiolipin (100 μg/ml), a microplate spectrofluorometer (Molecular Devices, Sunnyvale, Calif.) was used. Horseradish peroxidase (HRP) was used for comparison, and the HRP concentration (0.001 U/ml) was optimized to match the rate of Amplex® Red peroxidation by cardiolipin-cytochrome c complex.
# [4] = target: cardiolipin-cytochrome c complex (Equus caballus, UniProt P00004); experiment: Cytochrome c reduction in the presence of cardiolipin; format: biochemical; conditions: 40 μM peptide; 20 μM cytochrome c, 100 μg/ml cardiolipin, 50 μM ascorbate; 10% with cardiolipin alone
# Experimental: Reduction of cytochrome c (20 μM) was induced by the addition of glutathione (500 μM) in the absence or presence of CL (100 μg/ml) (FIG. 15A). Reduction of cytochrome c was monitored by absorbance at 550 nm using a 96-well UV-VIS plate reader (Molecular Devices). Addition of CL decreased the rate of cytochrome c reduction by half.
# The time course of cytochrome c reduction by ascorbate was recorded at 550 nm and 570 nm using a 96-well plate reader (Molecular Devices, Sunnyvale, Calif.). For all reactions, cytochrome c was preincubated with cardiolipin in the presence or absence of SS peptides for 1 min. […] Ascorbate (50 μM) was added to initiate the reduction of cytochrome c, and the absorbance was recorded for 5 min. The rate of reduction was calculated based on slope of the change in absorbance intensity of 550 nm over 570 nm.
# [5] = target: cytochrome c/cardiolipin complex (Equus caballus, UniProt P00004); experiment: Soret circular dichroism of cytochrome c with cardiolipin; format: biochemical; conditions: 10 μM cytochrome c, 30 μg/ml cardiolipin, peptide 1:1 with cytochrome c; pH 7.4
# Experimental: Circular dichroism (CD) was carried out to examine the effects of the peptides on protecting the heme environment of cytochrome c from the acyl chain of CL. For heme proteins, the Soret CD spectrum is strictly correlated with the heme pocket conformation. In particular, the negative 416-420 nm Cotton effect is considered diagnostic of Fe(III)-Met80 coordination in native cytochrome c (Santucci and Ascoli, 1997). […] CD spectra were obtained using AVIV CD Spectrometer Model 410.
# Changes in the Soret CD spectrum of cytochrome c (10 μM) were recorded in the absence (dotted line) and presence (dashed line) of 30 μg/ml CL, plus addition of different peptides (10 μM) (solid line) (FIG. 14). CD measurements were carried out using 20 mM HEPES, pH 7.5, at 25° C. and expressed as molar ellipticity (A) (m Deg). […] Accordingly, aromatic-cationic peptides of the present disclosure are useful for the prevention or treatment of diseases or disorders characterized by dysregulation of cardiolipin and/or cytochrome c, and/or diseases or disorders characterized by dysregulation of the cardiolipin/cytochrome c interaction. In addition, aromatic-cationic peptides of the present disclosure are useful to protect the heme environment of cytochrome c from the acyl chain of cardiolipin.
# Circular Dichroism (CD) spectra were collected with an AVIA 62 DS spectrophotometer equipped with a sample temperature controller. CD spectra of the Soret region (370-450 nm) were recorded with 10-mm path length cells containing 20 mM Hepes, pH 7.4, and 10 μM cytochrome c, in the presence or absence of 30 μg/ml cardiolipin and different SS peptide analogs (SS-02, [atn]SS-02, [ald]SS-02, and SS-31). The maximum lipid concentration was kept low to avoid spectral distortions due to excessive light scattering. All measurements were done at 25° C. All spectra were corrected for background, and the final spectrum shown represents the average of at least three experiments.
# [6] = Fluorescence spectroscopy of labelled peptide with other phospholipids; format: binding; conditions: POPA, DPPG, POPS, cardiolipin
# Experimental: 1-palmitoyl-2-oleoyl-sn-glycero-3-phosphocholine (POPC), 1-palmitoyl-2-oleoyl-sn-glycero-3-phosphate (POPA), 1-palmitoyl-2-oleoyl-sn-glycero-3-phospho-L-serine (POPS), 1-palmitoyl-2-oleoyl-sn-glycero-3-phosphoethanolamine (PE), and 1,2-dipalmitoyl-sn-glycero-3-phospho-(1′-rac-glycerol) (DPPG) were obtained from Avanti Polar Lipids Inc (Alabaster, Ala.).
# Changes in the emission intensity of the [atn]SS-02 and the [ald]SS-02 were measured using a Hitachi F-4500 fluorescence spectrophotometer. The different solvents used to dissolve the various phospholipids (chloroform, methanol and ethanol) had negligible effect on the fluorescence spectrum of [atn]SS-02 and [ald]SS-02. All experiments were done in low ionic solution (deionized water) to optimize electrostatic interactions of peptides with phospholipids.
# T1 sequence (P00004 2-105 limits assumed): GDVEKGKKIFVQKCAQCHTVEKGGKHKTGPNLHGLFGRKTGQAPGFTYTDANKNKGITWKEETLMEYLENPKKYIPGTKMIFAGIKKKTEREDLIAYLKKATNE
# Sequence of cardiolipin-cytochrome c complex (P00004 2-105 limits assumed, one chain of several): as the sequence (P00004 2-105 limits assumed) above
# Sequence of cytochrome c and cardiolipin (P00004 2-105 limits assumed): as above
# Sequence of cytochrome c/cardiolipin complex (P00004 2-105 limits assumed, one chain of several): as the sequence (P00004 2-105 limits assumed) above
# Sequence of cytochrome c/CL complex (P00004 2-105 limits assumed, one chain of several): as the sequence (P00004 2-105 limits assumed) above
Substance,reversal of cytochrome c quenching by BSA (cytochrome c [1]),quenching of fluorescence by cytochrome c (cytochrome c [2]),oxidation of cytochrome c by cardiolipin (loss of the 550 nm peak) [3],peroxidation rate of cytochrome c (cytochrome c/CL complex),rate of cytochrome c reduction in the presence of cardiolipin [4],loss of the negative Cotton peak at 419 nm caused by cardiolipin [5],specificity of peptide-phospholipid interaction [6]
"tetramethylrhodamine methyl ester [TMRM, reference compound]",completely reversed quenching,slightly quenched,–,–,–,–,–
"2′,6′-Dmt-D-Arg-Phe-Lys-NH2 [SS-02]",–,–,inhibition of cytochrome c oxidation,about 70 % of control,about 60%,prevented,specific for phospholipids with anionic headgroups

# Source: US10808008B2, “Aromatic-cationic peptides and uses of same” (Cornell University, priority 2012, dated 2020)
